In patent publication US11479802B2, “Assays for screening activity of modulators of members of the hydroxy steroid (17-beta) dehydrogenase (HSD17B) family” (Regeneron Pharmaceuticals, Inc., priority 2017, dated 2022):

Key:
[1] = target: T1, human HSD17B13 (Homo sapiens, UniProt Q7Z5P4); assay: Substrate screening of steroid and bioactive lipid libraries against purified recombinant HSD17B13 (NADH-linked luciferase assay); assay type: biochemical; conditions: for HSD17B13 Enzymatic Activity Relative Light Units: 500 μM NAD+, 100 ng enzyme, 3 hours at 23° C.; for HSD17B13 Enzymatic Activity Percent Estradiol Control: normalized to 50 μM estradiol after subtraction of 5% DMSO
T1 sequence (Q7Z5P4 20-300): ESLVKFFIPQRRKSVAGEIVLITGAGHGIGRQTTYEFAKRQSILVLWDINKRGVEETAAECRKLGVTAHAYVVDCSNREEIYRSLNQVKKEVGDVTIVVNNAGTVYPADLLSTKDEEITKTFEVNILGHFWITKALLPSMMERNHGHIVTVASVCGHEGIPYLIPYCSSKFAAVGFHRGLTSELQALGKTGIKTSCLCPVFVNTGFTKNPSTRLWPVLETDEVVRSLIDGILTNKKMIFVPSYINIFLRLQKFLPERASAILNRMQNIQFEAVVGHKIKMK
Summary of the method: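 Recombinant human HSD17B13 (100 ng) incubated 3 h at 23° C in 0.2 M Tris-HCl pH 7.5 with 500 μM NAD+ and 5 μM bioactive lipid or 50 μM steroid (5% DMSO). NADH measured by luciferase luminescence after 1 h; values as percent of 50 μM estradiol control after 5% DMSO subtraction.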

[2] = target: T2, recombinant HSD17B13 (E20-K300) (Homo sapiens, UniProt Q7Z5P4); assay: Biochemical NADH-linked screen of bioactive lipids as substrates (Example 2); conditions: 5 μM substrate, 100 μM NAD+, four hours at room temperature
T2 construct: recombinant HSD17B13 (E20-K300)
T2 sequence (Q7Z5P4 20-300): T1 sequence (Q7Z5P4 20-300)
Protocol: The biochemical assay described in Example 1 was repeated using bioactive lipids as substrates. In brief, 5 μM of each substrate was incubated in 40 μL reactions containing 1 μg of recombinant HSD17B13 (E20-K300) or beta-2 microglobulin (as a negative control) and 100 μM NAD^+ in 0.2M Tris-HCl, pH 7.5. After four hours of incubation at room temperature, 10 μL of each reaction was mixed with 10 μL luciferase and read, after 40 minutes, on an Envision Plate Reader (Perkin Elmer).

[3] = target: T3, HSD17B1 (Homo sapiens, UniProt P14061); assay: Cell-based assay of estrone to estradiol conversion by HSD17B1 (LC-MS); conditions: over 48 hour period
T3 construct: made in house
T3 sequence (P14061 1-328): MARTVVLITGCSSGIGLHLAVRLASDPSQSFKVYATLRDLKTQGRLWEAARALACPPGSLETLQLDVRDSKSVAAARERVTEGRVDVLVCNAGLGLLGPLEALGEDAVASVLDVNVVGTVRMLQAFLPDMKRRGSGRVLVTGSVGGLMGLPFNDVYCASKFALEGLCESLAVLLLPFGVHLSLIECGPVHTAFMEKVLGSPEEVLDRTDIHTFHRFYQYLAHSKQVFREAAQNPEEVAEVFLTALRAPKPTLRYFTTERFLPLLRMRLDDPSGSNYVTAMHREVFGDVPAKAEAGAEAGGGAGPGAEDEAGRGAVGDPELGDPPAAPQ
Text: The capacity of HSD17B1 to convert estrone to estradiol, and the capacity of equilin to inhibit HSD17B1 was confirmed in a cell-based assay. Liquid chromatography and mass spectrometry (LC-MS) was used to measure estrone and estradiol concentration over time.

[4] = target: T4, HSD17B2 (Homo sapiens, UniProt P37059); assay: Steroid substrate panel against HSD17B family member B2; assay type: biochemical; conditions: substrate at 50 μM; estradiol set as 100%
T4 construct: made in house
T4 sequence (P37059 1-387): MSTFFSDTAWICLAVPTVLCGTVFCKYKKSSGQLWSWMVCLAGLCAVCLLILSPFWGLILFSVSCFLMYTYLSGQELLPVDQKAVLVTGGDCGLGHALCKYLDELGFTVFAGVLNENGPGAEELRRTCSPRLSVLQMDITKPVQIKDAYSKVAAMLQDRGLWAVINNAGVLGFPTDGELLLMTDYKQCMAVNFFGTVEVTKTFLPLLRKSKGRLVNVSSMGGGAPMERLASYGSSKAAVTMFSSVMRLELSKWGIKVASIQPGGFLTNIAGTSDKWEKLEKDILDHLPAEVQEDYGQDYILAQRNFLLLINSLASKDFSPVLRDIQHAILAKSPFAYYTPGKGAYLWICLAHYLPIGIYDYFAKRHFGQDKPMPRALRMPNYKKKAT
Protocol: (§1) To understand the functional consequences of premature truncation of the HSD17B13 protein due to rs72613567:TA (the associated variant, rs72613567, is an insertion of an adenine adjacent to the donor splice site of exon six (TA allele)), the enzymatic activity of isoforms A and D was evaluated in vitro using recombinant protein and nicotinamide […] dinucleotide as cofactor. Reactions were performed in a final volume of 40 μl of assay buffer (0.2 M Tris-HCl, pH 7.5) which contained 500 μM NAD^+, 5 μM bioactive lipid or 50 μM steroid (all in a final concentration of 5% DMSO), and 100 ng of recombinant human HSD17B13. Reactions were incubated for 3 hours, at 23° C., after which an equal volume detection reagent was added. Following a 1 hour incubation at 23° C., the relative light units (RLUs) were measured on an Envision Plate Reader (Perkin Elmer). Raw RLU values were normalized as percent of control (50 μM estradiol) following subtraction of negative control (5% DMSO) using the following formula: Percent of control (POC)=100×(Sample (RLU)−Negative CTRLaverage)/(Positive CTRLaverage−Negative CTRLaverage).
(§2) In order to determine specificity of compounds with inhibitory activity against HSD17B13, assays for selected members of the HSD17B family which includes HSD17B1-HSD17B14 were established. As a first step, selected family members were expressed, purified and tested for activity a using a steroid substrate panel. Substrates from the steroid panel were tested at 50 μM, using the standard assay protocol. Activity against the substrates for each HSD17B family member were normalized to Percent of Control (POC). The control, estradiol, was set as 100%.

[5] = target: T5, HSD17B10 (Homo sapiens, UniProt Q99714); assay: Steroid substrate panel against HSD17B family member B10; assay type: biochemical; conditions: substrate at 50 μM; estradiol set as 100%
T5 construct: made in house
T5 sequence (Q99714 1-261): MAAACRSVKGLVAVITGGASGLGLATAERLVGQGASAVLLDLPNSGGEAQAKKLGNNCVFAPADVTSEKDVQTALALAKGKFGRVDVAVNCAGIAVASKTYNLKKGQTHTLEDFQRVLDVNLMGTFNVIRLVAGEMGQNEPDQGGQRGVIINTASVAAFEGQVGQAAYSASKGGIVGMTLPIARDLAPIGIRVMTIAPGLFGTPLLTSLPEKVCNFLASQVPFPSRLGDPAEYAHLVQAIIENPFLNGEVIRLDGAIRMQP
Protocol: as §1, §2

[6] = target: T6, HSD17B4 (Homo sapiens, UniProt P51659); assay: Steroid substrate panel against HSD17B family member B4; assay type: biochemical; conditions: substrate at 50 μM; estradiol set as 100%
T6 construct: made in house
T6 sequence (P51659 1-736): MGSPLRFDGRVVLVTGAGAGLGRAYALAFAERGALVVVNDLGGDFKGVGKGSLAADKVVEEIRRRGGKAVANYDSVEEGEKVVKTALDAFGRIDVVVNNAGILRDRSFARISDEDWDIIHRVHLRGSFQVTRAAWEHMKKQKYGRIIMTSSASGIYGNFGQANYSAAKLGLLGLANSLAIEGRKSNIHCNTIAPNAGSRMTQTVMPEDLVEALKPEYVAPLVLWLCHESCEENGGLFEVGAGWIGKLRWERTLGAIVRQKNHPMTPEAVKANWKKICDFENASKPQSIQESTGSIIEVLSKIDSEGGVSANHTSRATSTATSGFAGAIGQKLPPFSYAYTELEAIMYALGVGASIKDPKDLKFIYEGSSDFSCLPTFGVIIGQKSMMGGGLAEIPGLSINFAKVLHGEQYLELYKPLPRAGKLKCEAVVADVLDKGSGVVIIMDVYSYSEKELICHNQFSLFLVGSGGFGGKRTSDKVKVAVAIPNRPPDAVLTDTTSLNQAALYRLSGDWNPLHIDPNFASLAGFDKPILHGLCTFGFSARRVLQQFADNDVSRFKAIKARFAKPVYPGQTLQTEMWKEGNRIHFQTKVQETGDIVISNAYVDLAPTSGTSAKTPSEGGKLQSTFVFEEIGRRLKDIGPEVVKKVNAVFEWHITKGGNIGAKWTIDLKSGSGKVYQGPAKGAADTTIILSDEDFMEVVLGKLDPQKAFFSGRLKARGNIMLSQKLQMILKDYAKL
Protocol: as §1, §2

[7] = target: T3, HSD17B1; assay: Steroid substrate panel against HSD17B family member B1; assay type: biochemical; conditions: substrate at 50 μM; estradiol set as 100%
Protocol: as §1, §2

[8] = target: T7, HSD17B5 (Homo sapiens, UniProt P42330); assay: Steroid substrate panel against HSD17B family member B5; assay type: biochemical; conditions: substrate at 50 μM; estradiol set as 100%
T7 construct: made in house
T7 sequence (P42330 1-323): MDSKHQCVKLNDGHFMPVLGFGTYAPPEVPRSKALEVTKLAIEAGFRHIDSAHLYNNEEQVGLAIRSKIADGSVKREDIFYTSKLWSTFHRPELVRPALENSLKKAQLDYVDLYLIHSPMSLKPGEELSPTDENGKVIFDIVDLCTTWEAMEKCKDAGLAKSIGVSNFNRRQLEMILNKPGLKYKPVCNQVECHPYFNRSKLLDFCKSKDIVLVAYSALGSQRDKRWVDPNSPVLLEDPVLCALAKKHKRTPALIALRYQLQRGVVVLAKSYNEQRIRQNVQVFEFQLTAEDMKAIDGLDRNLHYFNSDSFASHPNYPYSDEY
Protocol: as §1, §2

[9] = target: T8, HEK293 cells overexpressing HSD17B13 isoform A (Homo sapiens, UniProt Q7Z5P4); assay: HEK293 cell-based substrate consumption assay (LC-MS); conditions: 1 μM substrate, 2 hours or 48 hours
T8 construct: expressed in transfected cells; host or cells: HEK293
T8 sequence (Q7Z5P4 20-300): T1 sequence (Q7Z5P4 20-300)

[10] = target: T9, HSD17B11 (Homo sapiens, UniProt Q8NBQ5); assay: Steroid substrate panel against HSD17B family member B11; assay type: biochemical; conditions: substrate at 50 μM; estradiol set as 100%
T9 construct: made in house
T9 sequence (Q8NBQ5 20-300): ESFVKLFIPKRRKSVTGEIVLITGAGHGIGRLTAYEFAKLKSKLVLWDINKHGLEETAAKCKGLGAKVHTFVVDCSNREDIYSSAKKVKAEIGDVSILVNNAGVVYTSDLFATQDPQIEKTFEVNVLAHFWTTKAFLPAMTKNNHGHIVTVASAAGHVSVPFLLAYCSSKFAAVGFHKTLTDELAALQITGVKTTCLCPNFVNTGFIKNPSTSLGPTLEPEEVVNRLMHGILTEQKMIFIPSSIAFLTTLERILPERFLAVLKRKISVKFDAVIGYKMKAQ
Protocol: as §1, §2

[11] = target: T1, human HSD17B13; assay: Biochemical NADH-linked screen of compound libraries as substrates for HSD17B13 (Example 1); conditions: 50 μM substrate, 0.5 mM NAD+, 24 hr at 25 degrees C.
Protocol: A biochemical assay was employed to screen the compounds from the library. The assay employed the following reaction conditions: 0.1 M Potassium phosphate buffer pH 7.5, 0.5 mM NAD^+, 50 μM substrate in DMSO 2% reaction volume or DMSO alone (no substrate) as a control, and 1 μl of purified enzyme or green fluorescent protein (GFP) as a control, with a final reaction volume of 100 microliters. Test samples were subject to a 24 hr incubation at 25 degrees C. After incubation, 20 μL reaction above+20 μL luciferase were incubated at room temperature for 1 h and read on an Envision Plate Reader (Perkin Elmer).

CCCCC/C=C\C[C@@H](O)/C=C/C=C/C=C\[C@@H](O)CCCC(=O)O [Leukotriene B4]
identified as enzymatic substrate of HSD17B13 ([1]; 265 unique putative substrates tested): enzymatic substrates | HSD17B13 Enzymatic Activity Relative Light Units ([1]; Bioactive Lipid Library, 5 μM bioactive lipid (Estradiol Control 50 μM)): 1743000 RLU | HSD17B13 Enzymatic Activity Percent Estradiol Control ([1]; Bioactive Lipid Library, 5 μM bioactive lipid): 115.40% | substrate for HSD17B13 [2]: is a substrate

C[C@]12CC[C@H]3C(=CCc4cc(O)ccc43)[C@@H]1CCC2=O [Equilin]
inhibition of conversion of estrone to estradiol by HSD17B1 [3]: can be inhibited by equilin | HSD17B13 Enzymatic Activity Relative Light Units ([1]; Steroid Library, 50 μM steroid): 186840 RLU | HSD17B13 Enzymatic Activity Percent Estradiol Control ([1]; Steroid Library, 50 μM steroid): 0.46%

C[C@]12CCC(O)C[C@@H]1CC[C@@H]1[C@@H]2CC[C@]2(C)[C@@H](O)CC[C@@H]12 (stereo partly shown) [Androstanediol]
HSD17B13 Enzymatic Activity Relative Light Units ([1]; Steroid Library, 50 μM steroid): 488440 RLU | HSD17B13 Enzymatic Activity Percent Estradiol Control ([1]; Steroid Library, 50 μM steroid): 5.73% | Percent of Control (POC), B2 [4]: 46.9% | Percent of Control (POC), B10 [5]: 1.9% | Percent of Control (POC), B4 [6]: 63.0% | Percent of Control (POC), B1 [7]: 0.3% | Percent of Control (POC), B5 [8]: 216% | conversion of substrate catalyzed by HSD17B13 in cells [9]: did not substantially catalyze the conversion | Percent of Control (POC), B11 [10]: 0.0%

C[C@]12CC[C@H]3[C@@H](CC[C@@]45O[C@@H]4C(O)=C(C#N)C[C@]35C)[C@@H]1CC[C@@H]2O [Trilostane]
HSD17B13 Enzymatic Activity Relative Light Units ([1]; Steroid Library, 50 μM steroid): 1896560 RLU | HSD17B13 Enzymatic Activity Percent Estradiol Control ([1]; Steroid Library, 50 μM steroid): 30.32% | suitability as substrate for HSD17B13 [11]: suitable substrates
